Source: the NIST ThermoML archive (doi:10.1016/j.jct.2015.03.021)

Key:
[1] = relative permittivity at various frequencies (dimensionless); conditions: 100 kPa, Liquid, Frequency=1 MHz, Parallel plate capacitor
[2] = 101.33 kPa, Liquid, Vibrating tube method
[3] = excess molar enthalpy (molar enthalpy of mixing); xn = mol fraction of the nth substance listed; conditions: 100 kPa, Liquid, Calvet calorimetry

CCC(C)(C)O [2-methylbutan-2-ol]
Conditions | mass density, [2] [kg/m3] | relative permittivity, [1]
298.15 K | 804.31 | 5.63
308.15 K | 795.16 | 5.23

CCC(O)CC [3-pentanol] + CCCCOCCCC
[3]
Conditions | excess molar enthalpy [kcal/mol]
298.15 K, x2 = 0.0979 | 0.0951
298.15 K, x2 = 0.1702 | 0.159
298.15 K, x2 = 0.2558 | 0.219
298.15 K, x2 = 0.3242 | 0.257
298.15 K, x2 = 0.4033 | 0.283
298.15 K, x2 = 0.4684 | 0.302
298.15 K, x2 = 0.5438 | 0.314
298.15 K, x2 = 0.6374 | 0.311
298.15 K, x2 = 0.7023 | 0.3
298.15 K, x2 = 0.7739 | 0.269
298.15 K, x2 = 0.8554 | 0.214
298.15 K, x2 = 0.9278 | 0.129
308.15 K, x2 = 0.0991 | 0.0968
308.15 K, x2 = 0.1692 | 0.157
308.15 K, x2 = 0.235 | 0.202
308.15 K, x2 = 0.3202 | 0.25
308.15 K, x2 = 0.3985 | 0.276
308.15 K, x2 = 0.5414 | 0.306
308.15 K, x2 = 0.6464 | 0.306
308.15 K, x2 = 0.7326 | 0.29
308.15 K, x2 = 0.811 | 0.246
308.15 K, x2 = 0.8986 | 0.182
308.15 K, x2 = 0.9603 | 0.0817

CCCC(C)O (stereo not given) [pentan-2-ol] + CCCCOCCCC
[3]
Conditions | excess molar enthalpy [kcal/mol]
298.15 K, x2 = 0.0974 | 0.0839
298.15 K, x2 = 0.1685 | 0.136
298.15 K, x2 = 0.2474 | 0.185
298.15 K, x2 = 0.3335 | 0.225
298.15 K, x2 = 0.397 | 0.243
298.15 K, x2 = 0.5096 | 0.268
298.15 K, x2 = 0.549 | 0.27
298.15 K, x2 = 0.6386 | 0.268
298.15 K, x2 = 0.705 | 0.255
298.15 K, x2 = 0.7803 | 0.232
298.15 K, x2 = 0.8623 | 0.193
298.15 K, x2 = 0.9322 | 0.118
308.15 K, x2 = 0.0841 | 0.0758
308.15 K, x2 = 0.1634 | 0.138
308.15 K, x2 = 0.2305 | 0.182
308.15 K, x2 = 0.3156 | 0.225
308.15 K, x2 = 0.4161 | 0.264
308.15 K, x2 = 0.4834 | 0.284
308.15 K, x2 = 0.5759 | 0.288
308.15 K, x2 = 0.6314 | 0.286
308.15 K, x2 = 0.7299 | 0.265
308.15 K, x2 = 0.8144 | 0.234
308.15 K, x2 = 0.908 | 0.161
308.15 K, x2 = 0.964 | 0.0746

CC(C)CCO [3-methylbutan-1-ol] + CCCCOCCCC
[3]
Conditions | excess molar enthalpy [kcal/mol]
298.15 K, x2 = 0.092 | 0.0552
298.15 K, x2 = 0.1608 | 0.0932
298.15 K, x2 = 0.2389 | 0.132
298.15 K, x2 = 0.3161 | 0.16
298.15 K, x2 = 0.3993 | 0.187
298.15 K, x2 = 0.4694 | 0.204
298.15 K, x2 = 0.5458 | 0.216
298.15 K, x2 = 0.6389 | 0.221
298.15 K, x2 = 0.7088 | 0.211
298.15 K, x2 = 0.776 | 0.194
298.15 K, x2 = 0.8626 | 0.154
298.15 K, x2 = 0.9423 | 0.0837
308.15 K, x2 = 0.0836 | 0.054
308.15 K, x2 = 0.1547 | 0.0951
308.15 K, x2 = 0.2348 | 0.138
308.15 K, x2 = 0.3248 | 0.176
308.15 K, x2 = 0.4249 | 0.202
308.15 K, x2 = 0.4894 | 0.22
308.15 K, x2 = 0.5775 | 0.228
308.15 K, x2 = 0.6519 | 0.226
308.15 K, x2 = 0.7302 | 0.214
308.15 K, x2 = 0.787 | 0.194
308.15 K, x2 = 0.8553 | 0.161
308.15 K, x2 = 0.9681 | 0.0564

CCCCCO [pentan-1-ol]
Conditions | mass density, [2] [kg/m3] | relative permittivity, [1]
298.15 K | 810.89 | 15
308.15 K | 803.7 | 13.51

CC(C)C(C)O (stereo not given) [3-methyl-2-butanol] + CCCCOCCCC
[3]
Conditions | excess molar enthalpy [kcal/mol]
298.15 K, x2 = 0.0959 | 0.0882
298.15 K, x2 = 0.1639 | 0.144
298.15 K, x2 = 0.2508 | 0.204
298.15 K, x2 = 0.3274 | 0.241
298.15 K, x2 = 0.3977 | 0.263
298.15 K, x2 = 0.4693 | 0.279
298.15 K, x2 = 0.552 | 0.289
298.15 K, x2 = 0.6335 | 0.287
298.15 K, x2 = 0.7081 | 0.273
298.15 K, x2 = 0.7757 | 0.248
298.15 K, x2 = 0.8645 | 0.194
298.15 K, x2 = 0.9394 | 0.106
308.15 K, x2 = 0.0813 | 0.0648
308.15 K, x2 = 0.155 | 0.118
308.15 K, x2 = 0.2572 | 0.181
308.15 K, x2 = 0.3229 | 0.233
308.15 K, x2 = 0.4119 | 0.263
308.15 K, x2 = 0.4817 | 0.281
308.15 K, x2 = 0.5473 | 0.288
308.15 K, x2 = 0.6348 | 0.287
308.15 K, x2 = 0.7226 | 0.269
308.15 K, x2 = 0.8083 | 0.235
308.15 K, x2 = 0.8908 | 0.168
308.15 K, x2 = 0.9786 | 0.0538

CCC(C)(C)O [2-methylbutan-2-ol] + CCCCOCCCC
excess molar enthalpy [kcal/mol], [3]
Conditions | 298.15 K | 308.15 K
x2 = 0.0916 | 0.0557 | –
x2 = 0.0919 | – | 0.065
x2 = 0.1591 | 0.098 | –
x2 = 0.1603 | – | 0.108
x2 = 0.2403 | 0.141 | 0.155
x2 = 0.3201 | 0.18 | –
x2 = 0.3244 | – | 0.188
x2 = 0.3985 | 0.21 | –
x2 = 0.4034 | – | 0.217
x2 = 0.4755 | 0.234 | –
x2 = 0.476 | – | 0.244
x2 = 0.5445 | 0.249 | –
x2 = 0.5541 | – | 0.262
x2 = 0.6392 | 0.258 | –
x2 = 0.6992 | 0.255 | –
x2 = 0.702 | – | 0.272
x2 = 0.7733 | 0.237 | –
x2 = 0.7747 | – | 0.258
x2 = 0.8569 | 0.199 | –
x2 = 0.8671 | – | 0.204
x2 = 0.9322 | – | 0.129
x2 = 0.933 | 0.123 | –

CCC(C)CO (stereo not given) [2-methyl-1-butanol] + CCCCOCCCC
[3]
Conditions | excess molar enthalpy [kcal/mol]
298.15 K, x2 = 0.0954 | 0.0664
298.15 K, x2 = 0.162 | 0.113
298.15 K, x2 = 0.2536 | 0.165
298.15 K, x2 = 0.3156 | 0.193
298.15 K, x2 = 0.4007 | 0.221
298.15 K, x2 = 0.4806 | 0.241
298.15 K, x2 = 0.5445 | 0.246
298.15 K, x2 = 0.6338 | 0.248
298.15 K, x2 = 0.7017 | 0.237
298.15 K, x2 = 0.7832 | 0.211
298.15 K, x2 = 0.8542 | 0.176
298.15 K, x2 = 0.9335 | 0.101
308.15 K, x2 = 0.0798 | 0.0595
308.15 K, x2 = 0.152 | 0.111
308.15 K, x2 = 0.2539 | 0.168
308.15 K, x2 = 0.3152 | 0.198
308.15 K, x2 = 0.4069 | 0.224
308.15 K, x2 = 0.4701 | 0.242
308.15 K, x2 = 0.5703 | 0.251
308.15 K, x2 = 0.6528 | 0.249
308.15 K, x2 = 0.7263 | 0.235
308.15 K, x2 = 0.8093 | 0.202
308.15 K, x2 = 0.897 | 0.147
308.15 K, x2 = 0.9553 | 0.07

CC(C)C(C)O (stereo not given) [3-methyl-2-butanol]
Conditions | mass density, [2] [kg/m3] | relative permittivity, [1]
298.15 K | 813.09 | 11.98
308.15 K | 804.35 | 10.78

CC(C)CCO [3-methylbutan-1-ol]
Conditions | mass density, [2] [kg/m3] | relative permittivity, [1]
298.15 K | 804.24 | 15.09
308.15 K | 796.95 | 13.73

CCCC(C)O (stereo not given) [pentan-2-ol]
Conditions | mass density, [2] [kg/m3] | relative permittivity, [1]
298.15 K | 806.11 | 13.54
308.15 K | 798 | 12.08

CCC(C)CO (stereo not given) [2-methyl-1-butanol]
Conditions | mass density, [2] [kg/m3] | relative permittivity, [1]
298.15 K | 814.98 | 15.52
308.15 K | 807.63 | 14.07

CCC(O)CC [3-pentanol]
Conditions | mass density, [2] [kg/m3] | relative permittivity, [1]
298.15 K | 815.62 | 13.21
308.15 K | 806.9 | 11.39
